From patent US7981903B2, “2-[2-{phenylamino}-1H-pyrrolo[2,3-D]pyrimidin-4-yl)amino] benzamide derivatives as IGF-1R inhibitors for the treatment of cancer” (GlaxoSmithKline LLC, priority 2007, dated 2011)
Several values for one entry are separate records, joined by “and”; a condition that tells them apart may be missing. Identical values can stand only once.

How the values were obtained:
human IR (hIR) = biological target: T1, human IR (hIR) (Homo sapiens, UniProt P06213); assay: TR-FRET kinase assay of purified hIR; format: biochemical; conditions: activated hIR 0.5 nM, 10 μM ATP, values given as pIC50 category
T1 construct: containing amino acid residues 979-1382 of human IR; made in house; host or cells: Sf9 cells (baculovirus), same process as hIGF1R
Procedure: (§1) Time Resolved Fluorescence Resonance Energy Transfer (TR-FRET) assays were carried out on the exemplified compounds as follows:
(§2) Purity is determined by HPLC. The calculated molecular mass of the peptide is 2216 dalton. Tyrosine phosphorylation by human IGF1R (hIGF1R) or human IR (hIR) occurs as indicated (Y*) in the peptide sequence described. Solid peptide sample is dissolved to approximately 1 mM in DMSO, aliquoted, and stored at −20° C. until use. True peptide concentration is determined by amino acid analysis.
hIR: GST-rTEV-IR(979-1382) containing amino acid residues 979-1382 of human IR (as annotated by NCBI accession number NP_000199) is expressed and purified by the same process as hIGF1R. […] Samples, in 25 mM Tris-HCl, 250 mM NaCl, 5% glycerol, 1 mM DTT, pH 7.5, are stored at −80° C. until use.
(§3) hIR: Activation of GST-rTEV-IGF-1R(957-1367) is achieved by a 5 minute incubation of hIR (2.7 μM final) with 2 mM ATP in 100 mM HEPES, 10 mM MgCL2, 0.1 mg/ml BSA, at room temperature. Autophosphorylation is stopped by addition of EDTA (to 100 mM final). Aliquoted samples are flash frozen in liquid nitrogen and stored at −80° C. until use.
(§4) Assays are performed in 384-well (Greiner, Catalog No. 784076) microtiter plates. Reaction buffer (50 mM HEPES buffer, pH 7.5; 10 mM MgCL2; 3 mM DTT; 1 mM CHAPS; 0.1 mg/ml BSA) for peptide phosphorylation (10 μl volume) contained, in final concentrations, 500 nM biotinylated peptide substrate; 10 μM ATP; and purified, activated hIGF1R or hIR (0.5 nM). Compounds, titrated in DMSO, are evaluated at eleven concentrations ranging from 50 μM to 0.2 nM. […] Reactions are incubated for 1 hour at room temperature and are stopped by a 5 μl addition of EDTA (to 33 mM). A further addition of 5 μl detection reagents (for final 7 nM Streptavidin-APC (Perkin Elmer #CR^130-150), 1 nM Europium-labeled anti-phosphotyrosine monoclonal antibody (PerkinElmer #AD0067), added in reaction buffer (without DTT), is required for signal generation. After 30 minutes, signal is read on PerkinElmer Viewlux microplate imager or Wallac Victor fluorometer.
(§5) The data for compound concentration responses were plotted as % Inhibition, calculated with the data reduction formula 100*(1-[(U1-C2)/(C1-C2)]), versus concentration of compound, where • U is the unknown value, • C1 is the average control value obtained for DMSO only, and • C2 is the average control value obtained for reactions stopped with EDTA at • t=0.
(§6) Data were fitted to the curve described by: y=((Vmax*x)/(K+x)) where • Vmax is the upper asymptote and • K is the IC50.

ALK = ALK (Homo sapiens, UniProt Q9UM73); assay: ALK enzyme assay (HTRF); format: biochemical; conditions: 0.25 nM ALK, 15.0 μM ATP, values given as pIC50 category
Procedure: The method measures the ability of the isolated enzyme to catalyse the transfer of the gamma-phosphate from ATP onto the tyrosine residue of a biotinylated synthetic peptide. The extent of tyrosine phosphorylation was measured using an anti-phosphotyrosine antibody, and quantified by homogenous time-resolved fluorescence (HTRF) assay purchased from CisBio (62TK0PEJ).
Reactions were performed in black 384-well polystyrene low volume plates in a final volume of 5 μl.
The reactions were then started by adding the substrate mix. The reactions were allowed to proceed for 120 minutes at 20° C. The reactions were then terminated by the addition of 5 μl HTRF detection mix to each well. The final concentrations of the detection reagents were: 50 mM HEPES (pH7.0); 0.1% BSA; 0.8 M KF; 20 mM EDTA; 1 mM CHAPS; TK-antibody Europium Cryptate; and 41 nM streptavidin-XL665. Assay plates were left unsealed, stacked and incubated at 20° for 60 minutes. Quantification of activity was achieved by counting in an Envision Counter (PerkinElmer).
Compounds under analysis were dissolved in Me2SO to 1.0 mM and serially diluted 1 to 3 with Me2SO through twelve dilutions. 0.05 μl of each concentration was transferred to the corresponding well of an assay plate. This creates a final compound concentration range from 0.00017 to 10 μM.
The data for dose responses were plotted as % Inhibition calculated with the data reduction formula 100*(1-(U1-C2)/(C1-C2)) versus concentration of compound where U is the unknown value, C1 is the average control value obtained for 1% DMSO, and C2 is the average control value obtained for 0.1 M EDTA. Data were fitted with a curve described by:
[formula] where A is the minimum y, B is the maximum y concentration [M], D is the slope factor, and x is the log10 of the compound.

[1] = biological target: T2, NIH-3T3 cells overexpressing human IGF-1R (Homo sapiens, UniProt P08069); assay: IGF-1R cellular autophosphorylation (DELFIA); format: cell-based
T2 construct: expressed in transfected cells; host or cells: NIH-3T3 (mouse fibroblasts)
Procedure: NIH-3T3 cells overexpressing human IGF-1R or IR were plated in 96-well plates (10,000 cells/well) in culture media containing 10% fetal bovine serum and incubated at 37° C. in a 5% CO2 incubator. Twenty four hours post-plating, cells were treated with different concentrations of test compounds ranging from 30 uM to 1.5 nM. Two hours after compound addition, cells were stimulated with either human IGF-1 (30 ng/ml) or insulin (3 ug/ml) for 15 minutes. Cell lysates are analyzed for phosphorylated receptors using dissociation enhanced lanthanide fluor-immuno assay (DELFIA) with anti-IGF-1R (MAB391, R&D Systems, Minneapolis, Minn.) or anti-IRβ (sc-711, Santa Cruz Biotechnology, Santa Cruz, Calif.) capture antibody and europium-labeled anti-pTyr antibody (Eu-N1 PT66, Perkin Elmer, Waltham, Mass.) for detection. The fluorescence signal for cells treated with compounds was expressed as percent relative to 100% stimulation (IGF-1 or insulin stimulated signal).

human IGF1R (hIGF1R) = biological target: T3, human IGF1R (hIGF1R) (Homo sapiens, UniProt P08069); assay: TR-FRET kinase assay of purified hIGF1R; format: biochemical; conditions: activated hIGF1R 0.5 nM, 10 μM ATP, values given as pIC50 category, read-out: IGF-1R pIC50 (converted)
T3 construct: containing amino acid residues 957-1367 of human IGF1R; made in house; host or cells: Sf9 cells (baculovirus)
Procedure: as §1, §2
hIGF1R: GST-rTEV-IGF-1R(957-1367) containing amino acid residues 957-1367 of human IGF1R (as annotated by National Center for Biotechnology Information (NCBI) accession number NP_000866) is purified from a baculovirus expression system in Sf9 cells using Glutathione Sepharose 4FF column chromatography followed by Sephadex-200 size exclusion column chromatography. […] Samples, in 25 mM Tris-HCl, 250 mM NaCl, 5% glycerol, 1 mM DTT, pH 7.5, are stored at −80° C. until use.
as §3, with “hIGF1R: Activation” for “hIR: Activation”, “a 4” for “a 5”, “of hIGF1R” for “of hIR”, “in 50” for “in 100”, “HEPES, 20” for “HEPES, 10”
as §4, §5, §6

T3 sequence (P08069 957-1367): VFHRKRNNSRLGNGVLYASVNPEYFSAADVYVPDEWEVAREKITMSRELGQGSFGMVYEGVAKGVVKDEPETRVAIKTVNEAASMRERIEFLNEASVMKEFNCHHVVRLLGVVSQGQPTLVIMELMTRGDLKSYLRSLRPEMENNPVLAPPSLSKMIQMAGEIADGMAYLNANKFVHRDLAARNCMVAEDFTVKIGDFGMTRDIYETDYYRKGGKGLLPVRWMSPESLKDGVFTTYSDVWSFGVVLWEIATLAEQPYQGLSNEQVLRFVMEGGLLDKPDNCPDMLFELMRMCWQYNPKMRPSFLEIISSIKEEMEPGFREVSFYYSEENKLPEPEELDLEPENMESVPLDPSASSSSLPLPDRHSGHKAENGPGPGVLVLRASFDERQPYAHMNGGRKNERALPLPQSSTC
T2 sequence (P08069 31-1367): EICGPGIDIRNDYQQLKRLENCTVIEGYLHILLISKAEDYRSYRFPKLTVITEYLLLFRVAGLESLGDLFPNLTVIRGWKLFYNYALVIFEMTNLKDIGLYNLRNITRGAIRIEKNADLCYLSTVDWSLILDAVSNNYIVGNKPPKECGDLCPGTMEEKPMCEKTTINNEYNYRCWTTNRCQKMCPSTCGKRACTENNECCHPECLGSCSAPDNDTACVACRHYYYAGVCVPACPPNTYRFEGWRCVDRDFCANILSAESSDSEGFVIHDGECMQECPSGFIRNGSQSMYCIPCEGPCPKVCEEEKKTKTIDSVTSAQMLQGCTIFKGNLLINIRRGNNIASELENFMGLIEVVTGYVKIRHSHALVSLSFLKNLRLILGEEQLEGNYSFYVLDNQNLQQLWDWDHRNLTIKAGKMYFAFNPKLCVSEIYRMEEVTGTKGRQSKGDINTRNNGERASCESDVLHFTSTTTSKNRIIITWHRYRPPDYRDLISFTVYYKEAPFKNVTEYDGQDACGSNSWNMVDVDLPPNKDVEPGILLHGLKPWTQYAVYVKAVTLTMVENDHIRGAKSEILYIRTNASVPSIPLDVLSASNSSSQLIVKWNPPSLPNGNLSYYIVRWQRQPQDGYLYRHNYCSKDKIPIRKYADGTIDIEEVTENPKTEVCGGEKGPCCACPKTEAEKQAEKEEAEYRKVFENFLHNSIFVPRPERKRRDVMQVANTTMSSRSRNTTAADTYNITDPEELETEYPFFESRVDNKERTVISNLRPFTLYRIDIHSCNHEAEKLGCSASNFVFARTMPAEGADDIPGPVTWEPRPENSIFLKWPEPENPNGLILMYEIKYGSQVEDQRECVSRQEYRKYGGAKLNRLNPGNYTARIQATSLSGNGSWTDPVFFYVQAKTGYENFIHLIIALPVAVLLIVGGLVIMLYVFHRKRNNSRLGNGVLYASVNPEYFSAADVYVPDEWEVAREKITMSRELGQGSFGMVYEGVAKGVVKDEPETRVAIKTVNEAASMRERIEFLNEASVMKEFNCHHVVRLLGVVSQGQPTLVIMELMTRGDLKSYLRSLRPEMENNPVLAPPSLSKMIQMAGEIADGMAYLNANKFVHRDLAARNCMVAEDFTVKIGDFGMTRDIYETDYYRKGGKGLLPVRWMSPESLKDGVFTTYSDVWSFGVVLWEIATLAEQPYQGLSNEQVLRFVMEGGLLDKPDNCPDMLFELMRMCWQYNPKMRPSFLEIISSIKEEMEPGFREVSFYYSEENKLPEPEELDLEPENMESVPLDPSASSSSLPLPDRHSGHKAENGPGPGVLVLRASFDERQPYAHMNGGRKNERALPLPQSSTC
T1 sequence (P06213 979-1382): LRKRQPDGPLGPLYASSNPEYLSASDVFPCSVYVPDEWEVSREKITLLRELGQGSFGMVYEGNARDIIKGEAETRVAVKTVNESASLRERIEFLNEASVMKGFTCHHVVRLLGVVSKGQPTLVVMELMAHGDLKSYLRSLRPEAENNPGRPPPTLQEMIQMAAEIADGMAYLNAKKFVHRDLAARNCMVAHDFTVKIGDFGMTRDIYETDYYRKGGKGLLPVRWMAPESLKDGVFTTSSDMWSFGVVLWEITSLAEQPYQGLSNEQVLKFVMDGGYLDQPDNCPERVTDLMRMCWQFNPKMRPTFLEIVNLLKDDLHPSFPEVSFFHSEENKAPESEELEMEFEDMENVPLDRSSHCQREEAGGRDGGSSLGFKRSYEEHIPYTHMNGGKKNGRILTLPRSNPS
ALK, sequence (Q9UM73 19-1620): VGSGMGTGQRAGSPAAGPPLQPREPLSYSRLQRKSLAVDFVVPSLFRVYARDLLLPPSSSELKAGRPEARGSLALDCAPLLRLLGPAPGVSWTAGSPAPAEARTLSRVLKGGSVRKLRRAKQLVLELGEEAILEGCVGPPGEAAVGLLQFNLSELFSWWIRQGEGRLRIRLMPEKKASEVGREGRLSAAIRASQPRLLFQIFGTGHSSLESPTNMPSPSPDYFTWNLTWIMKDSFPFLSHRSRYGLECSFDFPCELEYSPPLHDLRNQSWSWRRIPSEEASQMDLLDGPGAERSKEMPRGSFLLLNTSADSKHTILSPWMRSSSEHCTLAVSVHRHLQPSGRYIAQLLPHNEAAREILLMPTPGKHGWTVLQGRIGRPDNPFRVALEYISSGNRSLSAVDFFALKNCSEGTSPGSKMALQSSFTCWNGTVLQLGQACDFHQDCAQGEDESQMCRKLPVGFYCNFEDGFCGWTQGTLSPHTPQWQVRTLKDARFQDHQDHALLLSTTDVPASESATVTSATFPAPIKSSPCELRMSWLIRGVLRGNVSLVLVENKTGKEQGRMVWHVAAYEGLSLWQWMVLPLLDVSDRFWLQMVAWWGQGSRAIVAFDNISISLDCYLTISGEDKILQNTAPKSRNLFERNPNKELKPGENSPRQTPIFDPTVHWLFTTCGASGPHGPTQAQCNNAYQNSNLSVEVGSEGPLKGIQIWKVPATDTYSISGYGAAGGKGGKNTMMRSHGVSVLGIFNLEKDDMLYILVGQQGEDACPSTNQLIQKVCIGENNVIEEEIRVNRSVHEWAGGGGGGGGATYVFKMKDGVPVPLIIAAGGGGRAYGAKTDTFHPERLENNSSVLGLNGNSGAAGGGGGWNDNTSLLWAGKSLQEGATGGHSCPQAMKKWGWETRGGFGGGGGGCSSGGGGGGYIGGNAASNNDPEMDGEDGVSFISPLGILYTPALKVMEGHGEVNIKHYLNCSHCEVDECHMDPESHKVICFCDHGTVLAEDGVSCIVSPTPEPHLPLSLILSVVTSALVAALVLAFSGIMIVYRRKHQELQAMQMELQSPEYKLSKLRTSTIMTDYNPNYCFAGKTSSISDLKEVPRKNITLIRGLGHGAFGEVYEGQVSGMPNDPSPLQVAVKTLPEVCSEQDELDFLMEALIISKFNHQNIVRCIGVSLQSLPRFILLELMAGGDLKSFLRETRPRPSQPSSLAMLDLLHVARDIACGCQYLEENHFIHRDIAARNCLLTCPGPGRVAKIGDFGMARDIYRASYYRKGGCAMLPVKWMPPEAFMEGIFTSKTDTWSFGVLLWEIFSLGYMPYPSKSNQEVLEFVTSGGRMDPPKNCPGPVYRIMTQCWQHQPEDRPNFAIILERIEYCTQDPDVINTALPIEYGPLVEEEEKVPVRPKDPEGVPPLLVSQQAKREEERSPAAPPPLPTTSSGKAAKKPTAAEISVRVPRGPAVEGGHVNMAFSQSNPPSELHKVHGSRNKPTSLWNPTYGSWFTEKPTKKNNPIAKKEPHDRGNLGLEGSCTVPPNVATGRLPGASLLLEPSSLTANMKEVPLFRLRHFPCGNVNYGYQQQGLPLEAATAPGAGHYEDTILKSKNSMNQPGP

IC50 (human IR (hIR)) [nM] | IC50 (ALK) | IC50 [1] [nM] | IC50 (human IGF1R (hIGF1R)) [nM] | Compound
0.251 to 1 | 0.251 to 1 nM | < 100 |  | COc1cc(C2CCCN(C)C2)ccc1Nc1nc(Nc2ccc(F)cc2C(N)=O)c2cc[nH]c2n1 (stereo not drawn) [Example 56, 5-fluoro-2-[(2-{[2-(methyloxy)-4-(1-methyl-3-piperidinyl)phenyl]amino}-1H-pyrrolo[2,3-d]pyrimidin-4-yl)amino]benzamide]
 | 1.26 to 3.98 nM | 100 to 500 | 1.26 to 3.98 | CCCN1CCC=C(c2ccc(Nc3nc(Nc4cccc(F)c4C(N)=O)c4cc[nH]c4n3)c(C)c2)C1 [Example 40, 2-fluoro-6-[(2-{[2-methyl-4-(1-propyl-1,2,5,6-tetrahydro-3-pyridinyl)phenyl]amino}-1H-pyrrolo[2,3-d]pyrimidin-4-yl)amino]benzamide]
0.251 to 1 |  | < 100 | 1.26 to 3.98 | CCCN1CCN(c2ccc(Nc3nc(Nc4ccccc4C(N)=O)c4cc[nH]c4n3)c(OC)c2)CC1 [Example 8, 2-[(2-{[2-(methyloxy)-4-(4-propyl-1-piperazinyl)phenyl]amino}-1H-pyrrolo[2,3-d]pyrimidin-4-yl)amino]benzamide]
1.26 to 3.98 | 1.26 to 3.98 nM |  | 1.26 to 3.98 | CNC(=O)c1c(F)cccc1Nc1nc(Nc2cc3c(cc2Cl)CCN3C(=O)CN(C)C)nc2[nH]ccc12 [Example 131, 2-[(2-{[5-chloro-1-(N,N-dimethylglycyl)-2,3-dihydro-1H-indol-6-yl]amino}-1H-pyrrolo[2,3-d]pyrimidin-4-yl)amino]-6-fluoro-N-methylbenzamide]
5.01 to 158 | 5.01 to 200 nM |  | 5.01 to 200 | CCCN1CCC=C(c2ccc(Nc3nc(Nc4cc(C)ccc4C(N)=O)c4cc[nH]c4n3)c(C)c2)C1 [Example 35, 4-methyl-2-[(2-{[2-methyl-4-(1-propyl-1,2,5,6-tetrahydro-3-pyridinyl)phenyl]amino}-1H-pyrrolo[2,3-d]pyrimidin-4-yl)amino]benzamide]
0.251 to 1 | 5.01 to 200 nM |  | 1.26 to 3.98 | Cc1ccc(NC(=O)CN(C)C)cc1Nc1nc(Nc2ccc(Cl)cc2C(N)=O)c2cc[nH]c2n1 [Example 109, 5-chloro-2-{[2-({5-[(N,N-dimethylglycyl)amino]-2-methylphenyl}amino)-1H-pyrrolo[2,3-d]pyrimidin-4-yl]amino}benzamide]
1.26 to 3.98 | 1.26 to 3.98 nM |  | 1.26 to 3.98 | CCCN1CCC=C(c2ccc(Nc3nc(Nc4ccc(C)cc4C(N)=O)c4cc[nH]c4n3)c(C)c2)C1 [Example 32, 5-methyl-2-[(2-{[2-methyl-4-(1-propyl-1,2,5,6-tetrahydro-3-pyridinyl)phenyl]amino}-1H-pyrrolo[2,3-d]pyrimidin-4-yl)amino]benzamide]
1.26 to 3.98 | 1.26 to 3.98 nM |  | 1.26 to 3.98 | COc1cc(CS(C)(=O)=O)ccc1Nc1nc(Nc2ccccc2C(N)=O)c2cc[nH]c2n1 [Example 19, 2-{[2-({2-(methyloxy)-4-[(methylsulfonyl)methyl]phenyl}amino)-1H-pyrrolo[2,3-d]pyrimidin-4-yl]amino}benzamide]
0.251 to 1 | 0.251 to 1 nM |  | 0.251 to 1 | COc1cc2c(cc1Nc1nc(Nc3cccc4c3C(=O)NC4)c3cc[nH]c3n1)N(C(=O)CN1CCCC1)CCC2 [Example 201, 7-[(2-{[6-(methyloxy)-1-(1-pyrrolidinylacetyl)-1,2,3,4-tetrahydro-7-quinolinyl]amino}-1H-pyrrolo[2,3-d]pyrimidin-4-yl)amino]-2,3-dihydro-1H-isoindol-1-one]
1.26 to 3.98 | 1.26 to 3.98 nM and 5.01 to 200 nM |  | 1.26 to 3.98 | CNC(=O)c1c(F)cccc1Nc1nc(Nc2cc3c(cc2OC)CCN3C(=O)CN(C)CCOC)nc2[nH]ccc12 [Example 169, 2-fluoro-N-methyl-6-[(2-{[1-{N-methyl-N-[2-(methyloxy)ethyl]glycyl}-5-(methyloxy)-2,3-dihydro-1H-indol-6-yl]amino}-1H-pyrrolo[2,3-d]pyrimidin-4-yl)amino]benzamide]
5.01 to 158 | 5.01 to 200 nM |  | 5.01 to 200 | CNC(=O)c1c(F)cccc1Nc1nc(Nc2cc3c(cc2OC)CCN3C(=O)[C@@H]2CCCN2C)nc2[nH]ccc12 [Example 128, 2-fluoro-N-methyl-6-[(2-{[5-(methyloxy)-1-(1-methyl-L-prolyl)-2,3-dihydro-1H-indol-6-yl]amino}-1H-pyrrolo[2,3-d]pyrimidin-4-yl)amino]benzamide]
0.251 to 1 | 1.26 to 3.98 nM |  | 1.26 to 3.98 | Cc1ccc(NC(=O)CN(C)C)cc1Nc1nc(Nc2ccccc2C(N)=O)c2cc[nH]c2n1 [Example 13, 2-{[2-({5-[(N,N-dimethylglycyl)amino]-2-methylphenyl}amino)-1H-pyrrolo[2,3-d]pyrimidin-4-yl]amino}benzamide]
